Our source for the α-tubulin hyperacetylation values is PMC7265429, “Characterization of a new small-molecule inhibitor of HDAC6 in glioblastoma” (Cell Death & Disease, 2020).

Molecules are shown by their SMILES.

In the test the test system is acetyl-α-tubulin (HDAC6 main target) in U251-MG cells. Description: Western blot of acetyl-α-tubulin and cleaved PARP in U251-MG. The following applies: 10 nM, 48 h. In kind it is cell-based, human. The method, then: Immunoblots were performed following standard procedures. […] Detection was performed by chemiluminiscence using NOVEX ECL Chemi Substrate (ThermoFisher).
For orientation: In western blotting, separated proteins are transferred to a membrane and probed.

Turning to `O=C(CCCCCCC(=O)Nc1ccccc1)NO` [SAHA, Suberoylanilide hydroxamic acid], the α-tubulin hyperacetylation entry is “did not”.
